Results reported in BindingDB's records for patent US9796704 (SYMPHONY EVOLUTION, INC., 2017).

What was measured:
Test in all cases: AlphaScreen Assay
[1] = biological target: Receptor tyrosine-protein kinase erbB-2 (Homo sapiens, UniProt P04626)
Protocol: (§1) In AlphaScreen, when the donor and acceptor beads are close in proximity, a series of photochemical events will give rise to a fluorescent signal upon light activation. Here we use biotinylated poly-(Glu, Tyr) 4:1 as the kinase substrate, streptavidin-coated donor beads and anti-phosphortyrosine antibody PY100-coated acceptor beads. […] Compounds, ATP, biotinylated poly-(Glu, Tyr) and kinases are mixed in a volume of 20 μL for 1 hr at ambient temperature using Greiner 384-well white clear bottom medium binding plates. Then 10 uL solution containing 15-30 mg/mL AlphaScreen beads, 75 mM Hepes, pH 7.4, 300 mM NaCl, 120 mM EDTA, 0.3% BSA and 0.03% Tween-20 is added to each well. After 2-16 hr incubation of the beads, plates are read in a Perkin Elmer AlphaQuest reader (available from PerkinElmer Life and Analytical Sciences, Inc., of Boston Mass.).

Ephrin type-A receptor 2 = Ephrin type-A receptor 2 (Homo sapiens, UniProt P29317)
Protocol: as §1

[2] = biological target: Vascular endothelial growth factor receptor 2 (Homo sapiens, UniProt P35968)
Sequence of Vascular endothelial growth factor receptor 2 (P35968 whole entry): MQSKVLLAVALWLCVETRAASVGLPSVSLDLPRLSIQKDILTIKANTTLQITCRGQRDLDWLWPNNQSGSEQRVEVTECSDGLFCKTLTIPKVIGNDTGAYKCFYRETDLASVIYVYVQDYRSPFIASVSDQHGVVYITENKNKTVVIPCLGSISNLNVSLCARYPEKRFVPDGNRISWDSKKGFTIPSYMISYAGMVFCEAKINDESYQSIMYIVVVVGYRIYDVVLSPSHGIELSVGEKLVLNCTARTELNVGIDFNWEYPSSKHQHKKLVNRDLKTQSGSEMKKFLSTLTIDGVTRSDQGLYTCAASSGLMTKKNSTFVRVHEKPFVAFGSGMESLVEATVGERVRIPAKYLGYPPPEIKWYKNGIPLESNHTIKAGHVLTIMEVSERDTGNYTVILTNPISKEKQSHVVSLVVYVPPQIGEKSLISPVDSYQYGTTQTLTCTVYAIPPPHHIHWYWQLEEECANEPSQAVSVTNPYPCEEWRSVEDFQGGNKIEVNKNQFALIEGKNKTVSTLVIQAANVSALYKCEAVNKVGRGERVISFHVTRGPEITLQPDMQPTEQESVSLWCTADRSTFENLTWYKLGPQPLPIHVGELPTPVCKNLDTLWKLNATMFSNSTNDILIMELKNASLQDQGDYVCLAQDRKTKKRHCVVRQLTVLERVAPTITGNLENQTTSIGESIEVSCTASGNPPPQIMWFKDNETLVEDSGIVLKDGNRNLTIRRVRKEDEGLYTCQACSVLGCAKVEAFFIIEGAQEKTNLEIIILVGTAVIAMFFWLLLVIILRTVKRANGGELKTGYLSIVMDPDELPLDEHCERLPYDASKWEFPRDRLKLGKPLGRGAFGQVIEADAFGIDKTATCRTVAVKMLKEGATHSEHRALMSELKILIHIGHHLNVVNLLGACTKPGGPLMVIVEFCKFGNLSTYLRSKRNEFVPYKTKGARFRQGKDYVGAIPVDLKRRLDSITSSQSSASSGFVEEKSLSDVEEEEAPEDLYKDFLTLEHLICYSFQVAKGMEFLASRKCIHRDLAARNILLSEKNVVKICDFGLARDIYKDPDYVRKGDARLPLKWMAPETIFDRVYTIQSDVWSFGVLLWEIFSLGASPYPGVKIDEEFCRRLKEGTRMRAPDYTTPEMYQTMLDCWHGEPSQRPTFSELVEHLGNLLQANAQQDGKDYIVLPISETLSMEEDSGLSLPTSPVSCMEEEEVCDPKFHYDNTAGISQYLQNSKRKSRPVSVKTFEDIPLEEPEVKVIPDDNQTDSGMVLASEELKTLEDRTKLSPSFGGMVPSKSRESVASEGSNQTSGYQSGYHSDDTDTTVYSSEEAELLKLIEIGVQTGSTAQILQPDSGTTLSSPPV
Protocol: as §1

Sequence of Ephrin type-A receptor 2 (P29317 whole entry): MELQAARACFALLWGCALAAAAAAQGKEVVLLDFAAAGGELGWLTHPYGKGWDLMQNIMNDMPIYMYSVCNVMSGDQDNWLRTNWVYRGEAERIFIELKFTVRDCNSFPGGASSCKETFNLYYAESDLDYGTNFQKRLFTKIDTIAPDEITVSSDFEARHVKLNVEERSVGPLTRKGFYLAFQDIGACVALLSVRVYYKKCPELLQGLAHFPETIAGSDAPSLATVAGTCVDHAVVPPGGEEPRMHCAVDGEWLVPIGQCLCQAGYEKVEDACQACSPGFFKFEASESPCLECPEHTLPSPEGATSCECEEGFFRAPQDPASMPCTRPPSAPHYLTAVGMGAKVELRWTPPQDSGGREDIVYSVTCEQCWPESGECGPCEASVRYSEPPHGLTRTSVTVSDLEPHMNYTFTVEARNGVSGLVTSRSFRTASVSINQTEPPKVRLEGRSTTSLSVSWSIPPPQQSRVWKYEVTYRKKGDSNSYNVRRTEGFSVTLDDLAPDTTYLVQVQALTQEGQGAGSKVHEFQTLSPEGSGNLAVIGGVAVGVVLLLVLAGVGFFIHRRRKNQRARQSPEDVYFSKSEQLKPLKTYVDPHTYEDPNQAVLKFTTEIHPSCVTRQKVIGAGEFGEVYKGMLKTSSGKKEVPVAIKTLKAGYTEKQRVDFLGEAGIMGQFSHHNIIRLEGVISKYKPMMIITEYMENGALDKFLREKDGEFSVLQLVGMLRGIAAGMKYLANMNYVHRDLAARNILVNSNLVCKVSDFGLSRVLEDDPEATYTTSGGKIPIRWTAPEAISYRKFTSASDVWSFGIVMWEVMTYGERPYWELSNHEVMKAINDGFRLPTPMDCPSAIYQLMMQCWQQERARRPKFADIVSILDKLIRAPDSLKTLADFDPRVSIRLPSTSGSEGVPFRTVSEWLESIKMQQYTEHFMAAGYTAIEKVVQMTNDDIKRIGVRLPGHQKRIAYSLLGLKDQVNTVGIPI
Sequence of Receptor tyrosine-protein kinase erbB-2 (P04626 whole entry): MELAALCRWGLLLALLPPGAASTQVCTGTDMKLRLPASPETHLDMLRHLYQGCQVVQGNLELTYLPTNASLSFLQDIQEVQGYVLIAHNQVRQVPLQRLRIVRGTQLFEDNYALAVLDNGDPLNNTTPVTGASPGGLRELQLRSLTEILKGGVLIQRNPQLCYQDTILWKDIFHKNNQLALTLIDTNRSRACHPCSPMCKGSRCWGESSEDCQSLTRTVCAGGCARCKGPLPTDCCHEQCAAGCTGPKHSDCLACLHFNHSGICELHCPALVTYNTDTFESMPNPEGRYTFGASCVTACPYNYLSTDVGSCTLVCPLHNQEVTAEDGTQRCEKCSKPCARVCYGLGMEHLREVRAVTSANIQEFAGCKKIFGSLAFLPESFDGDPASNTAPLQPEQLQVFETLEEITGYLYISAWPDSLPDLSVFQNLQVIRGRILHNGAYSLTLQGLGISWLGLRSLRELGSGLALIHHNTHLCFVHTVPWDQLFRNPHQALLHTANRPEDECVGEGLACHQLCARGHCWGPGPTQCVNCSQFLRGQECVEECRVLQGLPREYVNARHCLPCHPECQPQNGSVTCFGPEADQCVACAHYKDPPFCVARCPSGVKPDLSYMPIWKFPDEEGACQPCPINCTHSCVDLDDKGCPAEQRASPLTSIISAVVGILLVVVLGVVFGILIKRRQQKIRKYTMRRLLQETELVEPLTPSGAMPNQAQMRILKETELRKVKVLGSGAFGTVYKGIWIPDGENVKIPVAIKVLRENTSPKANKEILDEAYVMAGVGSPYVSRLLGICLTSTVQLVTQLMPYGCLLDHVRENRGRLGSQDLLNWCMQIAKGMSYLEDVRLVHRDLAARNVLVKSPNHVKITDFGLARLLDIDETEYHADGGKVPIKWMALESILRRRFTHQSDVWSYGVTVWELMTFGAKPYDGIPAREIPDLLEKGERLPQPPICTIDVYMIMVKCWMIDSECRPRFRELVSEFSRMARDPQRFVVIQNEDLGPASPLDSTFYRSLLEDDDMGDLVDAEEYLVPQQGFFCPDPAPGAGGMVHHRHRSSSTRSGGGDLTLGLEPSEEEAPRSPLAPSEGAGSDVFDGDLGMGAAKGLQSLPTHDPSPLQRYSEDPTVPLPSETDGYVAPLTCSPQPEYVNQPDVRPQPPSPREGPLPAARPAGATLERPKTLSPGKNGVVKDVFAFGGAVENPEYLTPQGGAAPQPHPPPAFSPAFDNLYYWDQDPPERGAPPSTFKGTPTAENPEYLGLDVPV

| IC50 [1] | IC50 (Ephrin type-A receptor 2) | IC50 [2] | Structure (SMILES) |
| --- | --- | --- | --- |
| in the range around 10500 nM |  |  | COc1cc2c(Nc3ccc(Cl)c(Cl)c3)ncnc2cc1OCC1CN2CCOCC2CO1 (centres undefined) [US9796704, Entry 25] |
| in the range around 10500 nM |  |  | COc1cc2c(Nc3ccc(Cl)c(Cl)c3)ncnc2cc1OC[C@@H]1CO[C@H]2[C@@H]1OC[C@@H]2OC [US9796704, Entry 42] |
| in the range around 10500 nM |  |  | COc1cc2c(Nc3ccc(Cl)c(Cl)c3F)ncnc2cc1OCC1CO[C@@H]2[C@@H](OC)CO[C@H]12 (some centres undefined) [US9796704, Entry 43] |
| in the range around 525 nM |  |  | COc1cc2c(Nc3ccc(C(F)(F)F)cc3Br)ncnc2cc1O[C@@H]1CO[C@@H]2[C@H]1OC[C@H]2F [US9796704, Entry 125] |
|  | in the range around 10500 nM | in the range around 525 nM | COc1cc2c(Nc3ccc(Cl)c(Cl)c3)ncnc2cc1OCC1CN(Cc2ccccc2)CCO1 (centres undefined) [US9796704, Entry 147] |
|  | in the range around 525 nM | in the range around 525 nM | COc1cc2c(Nc3ccc(Cl)c(Cl)c3)ncnc2cc1OCc1noc(C2CCCNC2)n1 (centres undefined) [US9796704, Entry 153] |
|  | in the range around 525 nM | in the range around 525 nM | COc1cc2c(Nc3ccc(Cl)c(Cl)c3)ncnc2cc1OCc1noc(C2CCCCN2C)n1 (centres undefined) [US9796704, Entry 154] |
|  | in the range around 525 nM | in the range around 525 nM | COc1cc2c(Nc3ccc(Cl)c(Cl)c3)ncnc2cc1OCc1noc(C2CCCN(C)C2)n1 (centres undefined) [US9796704, Entry 156] |
|  | in the range around 525 nM | in the range around 525 nM | COc1cc2c(Nc3ccc(Cl)c(Cl)c3)ncnc2cc1OCc1cc(C)on1 [US9796704, Entry 160] |
|  | in the range around 525 nM | in the range around 525 nM | COc1cc2c(Nc3ccc(Cl)c(Cl)c3)ncnc2cc1OCc1ccc2nonc2c1 [US9796704, Entry 163] |
|  | in the range around 525 nM | in the range around 525 nM | COc1cc2c(Nc3ccc(Cl)c(Cl)c3)ncnc2cc1OCc1c(-c2ccccc2)nn(C)c1Cl [US9796704, Entry 175] |
| in the range around 525 nM |  |  | COc1cc2c(Nc3ccc(Cl)c(Cl)c3)ncnc2cc1OCc1nc(-c2ccncc2)cs1 [US9796704, Entry 203] |
| in the range around 525 nM |  | in the range around 525 nM | CCN1CCN(c2noc(COc3cc4ncnc(Nc5ccc(Cl)c(Cl)c5)c4cc3OC)n2)CC1 [US9796704, Entry 220] |
| in the range around 525 nM |  | in the range around 525 nM | COc1cc2c(Nc3ccc(Cl)c(Cl)c3)ncnc2cc1OCc1csc(-c2ccc(C(F)(F)F)cc2)n1 [US9796704, Entry 222] |
| in the range around 525 nM |  | in the range around 525 nM | COc1cc2c(Nc3ccc(Cl)c(Cl)c3)ncnc2cc1OCc1csc(-c2ccc(Cl)cc2)n1 [US9796704, Entry 223] |
| in the range around 525 nM |  | in the range around 525 nM | COc1cc2c(Nc3ccc(Cl)c(Cl)c3)ncnc2cc1OCc1noc(-c2c(C)noc2C)n1 [US9796704, Entry 224] |
| in the range around 10500 nM |  | in the range around 10500 nM | COc1cc2c(Nc3ccc(Cl)c(Cl)c3)ncnc2cc1OCc1csc2ccc(Cl)cc12 [US9796704, Entry 225] |
| in the range around 525 nM |  | in the range around 525 nM | COc1cc2c(Nc3ccc(Cl)c(Cl)c3)ncnc2cc1OCc1noc(-c2ccccc2OC)n1 [US9796704, Entry 227] |
| in the range around 525 nM |  | in the range around 525 nM | COc1cc2c(Nc3ccc(Cl)c(Cl)c3)ncnc2cc1OCc1nnc(-c2ccc(C)cc2)o1 [US9796704, Entry 228] |
| in the range around 525 nM |  | in the range around 525 nM | COc1cc2c(Nc3ccc(Cl)c(Cl)c3)ncnc2cc1OCc1nccn1Cc1ccccc1 [US9796704, Entry 229] |
| in the range around 525 nM |  |  | COc1cc2c(Nc3ccc(Cl)c(Cl)c3)ncnc2cc1OCc1cc(Br)cc(Br)c1 [US9796704, Entry 232] |
| in the range around 525 nM |  |  | COc1cc2c(Nc3ccc(Cl)c(Cl)c3)ncnc2cc1OCc1noc(-c2ccccc2)n1 [US9796704, Entry 235] |
| in the range around 10500 nM |  |  | CCN1CCCC(c2nc(COc3cc4ncnc(Nc5ccc(Cl)c(Cl)c5)c4cc3OC)no2)C1 (centres undefined) [US9796704, Entry 239] |
| in the range around 525 nM |  | in the range around 525 nM | COc1cc2c(Nc3ccc(Cl)c(Cl)c3)ncnc2cc1OCc1csc(N(C)C)n1 [US9796704, Entry 240] |

| IC50 [1] | IC50 (Ephrin type-A receptor 2) | IC50 [2] | Structure (SMILES) |
| --- | --- | --- | --- |
| in the range around 525 nM |  | in the range around 525 nM | CCN1CCCOC(COc2cc3ncnc(Nc4ccc(Cl)c(Cl)c4)c3cc2OC)C1 (centres undefined) [US9796704, Entry 241] |
| in the range around 525 nM |  |  | CCN1CCC(c2nc(COc3cc4ncnc(Nc5ccc(Cl)c(Cl)c5)c4cc3OC)cs2)CC1 [US9796704, Entry 242] |
| in the range around 525 nM |  | in the range around 525 nM | COc1cc2c(Nc3ccc(Cl)c(Cl)c3)ncnc2cc1OCc1csc(CO)n1 [US9796704, Entry 246] |
| in the range around 525 nM |  | in the range around 525 nM | COc1cc2c(Nc3ccc(Cl)c(Cl)c3)ncnc2cc1OCc1csc([C@@H]2CSCN2)n1 [US9796704, Entry 248] |
| in the range around 10500 nM |  | in the range around 525 nM | COc1cc2c(Nc3ccc(Cl)c(Cl)c3)ncnc2cc1OCc1csc(C2CCCCN2)n1 (centres undefined) [US9796704, Entry 249] |
| in the range around 10500 nM |  | in the range around 525 nM | COc1cc2c(Nc3ccc(Cl)c(Cl)c3)ncnc2cc1OCc1csc(C2CCCCN2C)n1 (centres undefined) [US9796704, Entry 250] |
| in the range around 10500 nM |  | in the range around 10500 nM | COc1cc2c(Nc3ccc(Cl)c(Cl)c3)ncnc2cc1OCc1csc(C2CCCNC2)n1 (centres undefined) [US9796704, Entry 251] |
| in the range around 10500 nM |  | in the range around 10500 nM | CCN1CCCCC1c1nc(COc2cc3ncnc(Nc4ccc(Cl)c(Cl)c4)c3cc2OC)cs1 (centres undefined) [US9796704, Entry 253] |
| in the range around 525 nM |  | in the range around 10500 nM | CCN1CCCC(c2nc(COc3cc4ncnc(Nc5ccc(Cl)c(Cl)c5)c4cc3OC)cs2)C1 (centres undefined) [US9796704, Entry 254] |
| in the range around 525 nM |  | in the range around 10500 nM | COCCN1CCCOC(COc2cc3ncnc(Nc4ccc(Cl)c(Cl)c4)c3cc2OC)C1 (centres undefined) [US9796704, Entry 260] |
| in the range around 525 nM |  | in the range around 10500 nM | COc1cc2c(Nc3ccc(Cl)c(Cl)c3)ncnc2cc1OCC1CN(C(C)C)CCCO1 (centres undefined) [US9796704, Entry 261] |
| in the range around 10500 nM |  | in the range around 10500 nM | COc1cc2c(Nc3ccc(Cl)c(Cl)c3)ncnc2cc1OCc1csc(N2CCNCC2)n1 [US9796704, Entry 262] |
| in the range around 10500 nM |  | in the range around 10500 nM | COc1cc2c(Nc3ccc(Cl)c(Cl)c3)ncnc2cc1OCc1noc(C2CCCN2)n1 (centres undefined) [US9796704, Entry 263] |
| in the range around 10500 nM |  | in the range around 525 nM | CCN1CCCC1c1nc(COc2cc3ncnc(Nc4ccc(Cl)c(Cl)c4)c3cc2OC)no1 (centres undefined) [US9796704, Entry 264] |
| in the range around 10500 nM |  | in the range around 10500 nM | COc1cc2c(Nc3ccc(Cl)c(Cl)c3)ncnc2cc1OCc1nc([C@@H]2CCCN2C)no1 [US9796704, Entry 265] |
| in the range around 10500 nM |  | in the range around 10500 nM | COc1cc2c(Nc3ccc(Cl)c(Cl)c3)ncnc2cc1OCc1csc([C@@H]2CCCN2C)n1 [US9796704, Entry 266] |
| in the range around 525 nM |  | in the range around 10500 nM | CCN1CCN(c2nc(COc3cc4ncnc(Nc5ccc(Cl)c(Cl)c5)c4cc3OC)cs2)CC1 [US9796704, Entry 267] |
| in the range around 525 nM |  | in the range around 10500 nM | COc1cc2c(Nc3ccc(Cl)c(Cl)c3)ncnc2cc1OCC1CN(C)CCN1C (centres undefined) [US9796704, Entry 268] |
| in the range around 525 nM |  | in the range around 525 nM | COc1cc2c(Nc3ccc(Cl)c(Cl)c3)ncnc2cc1OCC1CN(C(C)C)CCO1 (centres undefined) [US9796704, Entry 270] |
| in the range around 525 nM |  | in the range around 10500 nM | COc1cc2c(Nc3ccc(Cl)c(Cl)c3)ncnc2cc1OCC1CN(CCCc2ccccc2)CCO1 (centres undefined) [US9796704, Entry 271] |
| in the range around 525 nM |  | in the range around 10500 nM | COCCN1CCOC(COc2cc3ncnc(Nc4ccc(Cl)c(Cl)c4)c3cc2OC)C1 (centres undefined) [US9796704, Entry 272] |
| in the range around 10500 nM |  | in the range around 10500 nM | CCOC(=O)C(C)N1CCOC(COc2cc3ncnc(Nc4ccc(Cl)c(Cl)c4)c3cc2OC)C1 (centres undefined) [US9796704, Entry 273] |
| in the range around 10500 nM |  | in the range around 10500 nM | COc1cc2c(Nc3ccc(Cl)c(Cl)c3)ncnc2cc1OCC1CN(CCOCCO)CCO1 (centres undefined) [US9796704, Entry 275] |
| in the range around 525 nM |  | in the range around 10500 nM | COc1cc2c(Nc3ccc(Cl)c(Cl)c3)ncnc2cc1OCC1CN(CCCCCC#N)CCO1 (centres undefined) [US9796704, Entry 277] |

| Structure (SMILES) | IC50 [1] | IC50 (Ephrin type-A receptor 2) | IC50 [2] |
| --- | --- | --- | --- |
| COc1cc2c(Nc3ccc(Cl)c(Cl)c3)ncnc2cc1OC[C@@H]1CN2CCC[C@@H]2CO1 [US9796704, Entry 33] | in the range around 525 nM | in the range around 525 nM |  |
